Data taken from PubChem BioAssay (NCI).
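48-hour exposure; five concentrations; linearly interpolated endpoints. Definition used: TGI = concentration required for complete inhibition of growth.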

Key:
Experiment in all cases: growth of human tumour cells (NCI), 48 h
[1] = test system: SF-295 CNS
[2] = test system: DMS 273 small cell lung
[3] = test system: SF-268 CNS
[4] = test system: LOX IMVI melanoma
[5] = test system: HOP-92 NSCLC
[6] = test system: M14 melanoma
[7] = test system: M19-MEL melanoma
[8] = test system: OVCAR-5 ovarian
[9] = test system: U251 CNS
[10] = test system: SW-620 colon
[11] = test system: HOP-62 NSCLC
[12] = test system: OVCAR-4 ovarian
[13] = test system: NCI-H460 lung
[14] = test system: HCT-15 colon
[15] = test system: NCI-H226 lung
[16] = test system: UACC-257 melanoma
[17] = test system: XF 498 CNS
[18] = test system: RPMI-8226 leukemia
[19] = test system: RXF-631 renal
[20] = test system: TK-10 renal
[21] = test system: UACC-62 melanoma
[22] = test system: IGROV1 ovarian
[23] = test system: CAKI-1 renal
[24] = test system: OVCAR-8 ovarian
[25] = test system: SNB-75 CNS
[26] = test system: SK-MEL-2 melanoma
[27] = test system: A549 NSCLC
[28] = test system: SK-MEL-5 melanoma
[29] = test system: UO-31 renal
[30] = test system: SF-539 CNS
[31] = test system: RXF 393 renal
[32] = test system: HT29 colon
[33] = test system: KM12 colon
[34] = test system: NCI-H23 lung
[35] = test system: DLD-1 colon
[36] = test system: SK-OV-3 ovarian
[37] = test system: SNB-78 CNS
[38] = test system: LXFL 529 NSCLC
[39] = test system: HCC-2998 colon
[40] = test system: OVCAR-3 ovarian
[41] = test system: DMS 114 small cell lung
[42] = test system: MOLT-4 leukemia
[43] = test system: NCI-H522 lung
[44] = test system: MALME-3M melanoma
[45] = test system: SK-MEL-28 melanoma
[46] = test system: KM20L2 colon
[47] = test system: 786-0 renal
[48] = test system: A498 renal
[49] = test system: ACHN renal
[50] = test system: HOP-18 NSCLC
[51] = test system: HCT-116 colon
[52] = test system: COLO 205 colon
[53] = test system: K-562 leukemia
[54] = test system: EKVX NSCLC
[55] = test system: SNB-19 CNS
[56] = test system: HL-60(TB) leukemia
[57] = test system: SN12C renal
[58] = test system: CCRF-CEM leukemia
[59] = test system: SR leukemia

## COc1ccc(C2C3C(=O)C=CC(=O)C3[C@@H]2C)cc1OC (stereo partly specified)
[1]
  TGI: > 100 µM
[2]
  TGI: > 100 µM
[3]
  TGI: > 100 µM
[4]
  TGI: > 100 µM
[5]
  TGI: > 100 µM
[6]
  TGI: > 100 µM
[7]
  TGI: > 100 µM
[8]
  TGI: > 100 µM
[9]
  TGI: > 100 µM
[10]
  TGI: > 100 µM
[11]
  TGI: > 100 µM
[12]
  TGI: > 100 µM
[13]
  TGI: > 100 µM
[14]
  TGI: 62.4 µM
[15]
  TGI: > 100 µM
[16]
  TGI: > 100 µM
[17]
  TGI: > 100 µM
[18]
  TGI: 63.1 µM
[19]
  TGI: > 100 µM
[20]
  TGI: > 100 µM
[21]
  TGI: > 100 µM
[22]
  TGI: > 100 µM
[23]
  TGI: > 100 µM
[24]
  TGI: > 100 µM
[25]
  TGI: > 100 µM
[26]
  TGI: > 100 µM
[27]
  TGI: > 100 µM
[28]
  TGI: > 100 µM
[29]
  TGI: > 100 µM
[30]
  TGI: > 100 µM
[31]
  TGI: > 100 µM
[32]
  TGI: > 100 µM
[33]
  TGI: > 100 µM
[34]
  TGI: > 100 µM
[35]
  TGI: > 100 µM
[36]
  TGI: > 100 µM
[37]
  TGI: > 100 µM
[38]
  TGI: > 100 µM
[39]
  TGI: > 100 µM
[40]
  TGI: > 100 µM
[41]
  TGI: > 100 µM
[42]
  TGI: 91.9 µM
[43]
  TGI: 33.4 µM
[44]
  TGI: > 100 µM
[45]
  TGI: > 100 µM
[46]
  TGI: > 100 µM
[47]
  TGI: > 100 µM
[48]
  TGI: > 100 µM
[49]
  TGI: > 100 µM
[50]
  TGI: > 100 µM
[51]
  TGI: > 100 µM
[52]
  TGI: > 100 µM
[53]
  TGI: > 100 µM
[54]
  TGI: > 100 µM
[55]
  TGI: > 100 µM

## COC1=CC(O)(CC(N)=O)c2ccccc2C1=O (stereo unspecified)
[1]
  TGI: > 100 µM
[56]
  TGI: > 100 µM
[2]
  TGI: > 100 µM
[3]
  TGI: > 100 µM
[4]
  TGI: > 100 µM
[5]
  TGI: > 100 µM
[57]
  TGI: > 100 µM
[6]
  TGI: > 100 µM
[7]
  TGI: > 100 µM
[58]
  TGI: > 100 µM
[8]
  TGI: > 100 µM
[9]
  TGI: > 100 µM
[10]
  TGI: > 100 µM
[11]
  TGI: > 100 µM
[12]
  TGI: > 100 µM
[13]
  TGI: > 100 µM
[14]
  TGI: > 100 µM
[15]
  TGI: > 100 µM
[16]
  TGI: > 100 µM
[17]
  TGI: > 100 µM
[18]
  TGI: > 100 µM
[19]
  TGI: > 100 µM
[20]
  TGI: > 100 µM
[21]
  TGI: > 100 µM
[22]
  TGI: > 100 µM
[23]
  TGI: > 100 µM
[24]
  TGI: > 100 µM
[59]
  TGI: > 100 µM
[25]
  TGI: > 100 µM
[26]
  TGI: > 100 µM
[27]
  TGI: > 100 µM
[28]
  TGI: > 100 µM
[29]
  TGI: > 100 µM
[31]
  TGI: > 100 µM
[32]
  TGI: > 100 µM
[33]
  TGI: > 100 µM
[35]
  TGI: > 100 µM
[36]
  TGI: > 100 µM
[37]
  TGI: > 100 µM
[38]
  TGI: > 100 µM
[39]
  TGI: > 100 µM
[40]
  TGI: > 100 µM
[41]
  TGI: > 100 µM
[42]
  TGI: > 100 µM
[43]
  TGI: > 100 µM
[44]
  TGI: > 100 µM
[45]
  TGI: > 100 µM
[46]
  TGI: > 100 µM
[47]
  TGI: > 100 µM
[48]
  TGI: > 100 µM
[49]
  TGI: > 100 µM
[50]
  TGI: > 100 µM
[51]
  TGI: > 100 µM
[52]
  TGI: > 100 µM
[53]
  TGI: > 100 µM
[54]
  TGI: > 100 µM
[55]
  TGI: > 100 µM

## Cc1ccc(NC(=O)c2cccc([N+](=O)[O-])c2O)c([N+](=O)[O-])c1
[1]
  TGI: 32.8 µM
[56]
  TGI: > 100 µM
[2]
  TGI: 26.2 µM
[3]
  TGI: 54.9 µM
[4]
  TGI: 25.1 µM
[5]
  TGI: 45.4 µM
[57]
  TGI: 53.8 µM
[6]
  TGI: 30.9 µM
[7]
  TGI: 27.6 µM
[58]
  TGI: > 100 µM
[8]
  TGI: 39.4 µM
[9]
  TGI: 38.9 µM
[10]
  TGI: 39.5 µM
[11]
  TGI: 37.6 µM
[12]
  TGI: 27 µM
[13]
  TGI: 18.9 µM
[14]
  TGI: 31.8 µM
[15]
  TGI: 8.4 µM
[16]
  TGI: 33.4 µM
[17]
  TGI: 36.2 µM
[18]
  TGI: > 100 µM
[19]
  TGI: 26.9 µM
[21]
  TGI: 24.8 µM
[22]
  TGI: 44.9 µM
[23]
  TGI: > 100 µM
[24]
  TGI: 30.1 µM
[25]
  TGI: 29.4 µM
[27]
  TGI: 68 µM
[29]
  TGI: 45.4 µM
[30]
  TGI: 34.3 µM
[31]
  TGI: 23.6 µM
[32]
  TGI: 69.9 µM
[33]
  TGI: 23 µM
[34]
  TGI: 27.6 µM
[35]
  TGI: 39.9 µM
[36]
  TGI: 57.8 µM
[37]
  TGI: > 100 µM
[38]
  TGI: 27.9 µM
[39]
  TGI: 29.5 µM
[40]
  TGI: 44.1 µM
[41]
  TGI: 25.7 µM
[43]
  TGI: 29.5 µM
[44]
  TGI: 30.8 µM
[45]
  TGI: 32 µM
[46]
  TGI: 70.4 µM
[47]
  TGI: 37 µM
[48]
  TGI: 31.5 µM
[49]
  TGI: 58.1 µM
[50]
  TGI: 91.1 µM
[51]
  TGI: 30.3 µM
[52]
  TGI: 38.6 µM
[53]
  TGI: > 100 µM
[54]
  TGI: 48.4 µM
[55]
  TGI: 82.9 µM
